The values that follow come from ChEMBL document CHEMBL4184304, “Design and synthesis of novel and potent GPR119 agonists with a spirocyclic structure” (Bioorg Med Chem Lett, 2018).

In brackets after ≈: the same amount, converted by molar mass. Bounds are passed on as bounds.

The target of data set [1] is T1, Glucose-dependent insulinotropic receptor (Homo sapiens, UniProt Q8TDV5).
T1 sequence (Q8TDV5 whole entry): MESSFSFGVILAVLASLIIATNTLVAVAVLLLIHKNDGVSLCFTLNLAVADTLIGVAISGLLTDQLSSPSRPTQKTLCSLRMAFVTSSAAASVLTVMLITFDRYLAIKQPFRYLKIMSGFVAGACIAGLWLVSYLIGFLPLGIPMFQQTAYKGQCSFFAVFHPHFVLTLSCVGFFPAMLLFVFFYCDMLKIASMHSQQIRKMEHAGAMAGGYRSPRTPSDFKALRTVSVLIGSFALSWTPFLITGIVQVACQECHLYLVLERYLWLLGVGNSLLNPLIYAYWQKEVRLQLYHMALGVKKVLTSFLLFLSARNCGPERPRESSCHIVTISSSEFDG
Put plainly: Agonist activity at human GPR119 expressed in HEK293 cells assessed as increase in intracellular cAMP level after 30 mins. It counts as functional, cell-based.

Data set [2] deals with T2, Glucose-dependent insulinotropic receptor (Homo sapiens) (UniProt Q8TDV5).
T2 sequence (whole entry): T1 sequence (Q8TDV5 whole entry)
The data set is described as follows: Agonist activity at human GPR119 expressed in HEK293 cells assessed as increase in intracellular cAMP level after 30 mins relative to oleoylethanolamide. It counts as functional, cell-based.

The nature of data set [3]: Solubility in fed state simulated intestinal fluid. It counts as physicochemical.
The target in another data set is T3, Cytochrome P450 2C8 (Homo sapiens, UniProt P10632).
T3 sequence (P10632 whole entry): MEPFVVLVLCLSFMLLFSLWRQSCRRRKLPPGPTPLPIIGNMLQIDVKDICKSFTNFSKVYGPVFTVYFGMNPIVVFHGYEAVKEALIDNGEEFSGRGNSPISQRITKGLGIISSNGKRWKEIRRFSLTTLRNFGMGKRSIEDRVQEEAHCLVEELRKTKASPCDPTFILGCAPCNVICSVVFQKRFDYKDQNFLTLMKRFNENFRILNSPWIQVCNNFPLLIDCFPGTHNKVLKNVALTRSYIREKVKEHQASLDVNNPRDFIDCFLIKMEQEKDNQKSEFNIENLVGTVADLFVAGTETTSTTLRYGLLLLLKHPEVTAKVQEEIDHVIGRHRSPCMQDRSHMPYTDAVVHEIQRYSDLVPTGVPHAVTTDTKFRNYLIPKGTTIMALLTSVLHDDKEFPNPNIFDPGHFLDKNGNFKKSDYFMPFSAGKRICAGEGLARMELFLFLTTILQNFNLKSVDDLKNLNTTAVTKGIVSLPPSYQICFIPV
Put plainly: Inhibition of CYP2C8 (unknown origin). It counts as ADME.

The next data set concerns the target Cytochrome P450 2C9 (Homo sapiens, UniProt P11712). The data set is described as follows: Inhibition of CYP2C9 (unknown origin). It counts as ADME.
A further data set deals with Cytochrome P450 2C19 (Homo sapiens, UniProt P33261). The data set is described as follows: Inhibition of CYP2C19 (unknown origin). It counts as ADME.
Chain of Cytochrome P450 2C19 (P33261 whole entry): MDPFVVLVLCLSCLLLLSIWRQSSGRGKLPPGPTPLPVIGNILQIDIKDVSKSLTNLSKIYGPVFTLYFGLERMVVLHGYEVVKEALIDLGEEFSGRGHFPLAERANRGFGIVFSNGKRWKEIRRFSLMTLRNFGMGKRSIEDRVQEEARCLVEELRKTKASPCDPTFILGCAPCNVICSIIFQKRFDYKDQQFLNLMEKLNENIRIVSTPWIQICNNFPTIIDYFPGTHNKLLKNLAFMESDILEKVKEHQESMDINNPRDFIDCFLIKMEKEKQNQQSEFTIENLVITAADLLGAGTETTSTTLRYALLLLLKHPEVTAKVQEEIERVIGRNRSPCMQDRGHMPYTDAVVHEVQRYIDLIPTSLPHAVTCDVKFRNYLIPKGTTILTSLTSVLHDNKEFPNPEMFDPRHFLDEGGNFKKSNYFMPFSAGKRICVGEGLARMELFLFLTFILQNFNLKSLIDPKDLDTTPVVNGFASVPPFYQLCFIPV
The next data set addresses T4, Cytochrome P450 1A2 (Homo sapiens, UniProt P05177).
T4 sequence (P05177 whole entry): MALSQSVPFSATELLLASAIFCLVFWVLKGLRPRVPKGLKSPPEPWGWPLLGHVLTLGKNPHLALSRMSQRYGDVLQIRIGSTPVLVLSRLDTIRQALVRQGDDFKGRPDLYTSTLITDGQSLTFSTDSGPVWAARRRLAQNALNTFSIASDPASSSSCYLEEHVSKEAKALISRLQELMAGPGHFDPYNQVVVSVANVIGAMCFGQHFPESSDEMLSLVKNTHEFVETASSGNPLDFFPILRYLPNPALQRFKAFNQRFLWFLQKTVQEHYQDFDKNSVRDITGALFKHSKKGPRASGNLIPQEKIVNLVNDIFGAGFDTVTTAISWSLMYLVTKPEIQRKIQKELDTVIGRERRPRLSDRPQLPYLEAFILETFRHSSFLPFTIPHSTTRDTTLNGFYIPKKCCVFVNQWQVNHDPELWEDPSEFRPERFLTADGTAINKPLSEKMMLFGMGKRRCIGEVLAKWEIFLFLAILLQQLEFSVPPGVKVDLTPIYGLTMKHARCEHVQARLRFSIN
The data set is described as follows: Inhibition of CYP1A2 (unknown origin). It counts as ADME.

A further data set deals with Cytochrome P450 3A4 (Homo sapiens, UniProt P08684). The data set is described as follows: Inhibition of CYP3A4 (unknown origin). It counts as ADME.
Chain of Cytochrome P450 3A4 (P08684 whole entry): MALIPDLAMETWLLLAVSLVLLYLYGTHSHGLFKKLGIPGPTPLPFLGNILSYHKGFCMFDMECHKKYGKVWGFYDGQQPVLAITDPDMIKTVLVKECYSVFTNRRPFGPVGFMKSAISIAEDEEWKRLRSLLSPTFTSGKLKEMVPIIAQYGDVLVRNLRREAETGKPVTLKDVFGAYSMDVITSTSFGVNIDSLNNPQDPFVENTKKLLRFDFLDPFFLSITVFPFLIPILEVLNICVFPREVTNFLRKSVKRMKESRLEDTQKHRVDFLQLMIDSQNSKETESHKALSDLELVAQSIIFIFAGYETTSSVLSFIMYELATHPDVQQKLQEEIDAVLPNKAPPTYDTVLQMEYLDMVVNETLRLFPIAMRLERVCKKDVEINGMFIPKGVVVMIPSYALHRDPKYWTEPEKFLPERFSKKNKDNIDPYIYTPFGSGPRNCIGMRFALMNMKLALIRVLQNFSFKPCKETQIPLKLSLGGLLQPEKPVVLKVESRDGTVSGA
Another data set deals with Cytochrome P450 2D6 (Homo sapiens, UniProt P10635). The data set is described as follows: Inhibition of CYP2D6 (unknown origin). It counts as ADME.
Chain of Cytochrome P450 2D6 (P10635 whole entry): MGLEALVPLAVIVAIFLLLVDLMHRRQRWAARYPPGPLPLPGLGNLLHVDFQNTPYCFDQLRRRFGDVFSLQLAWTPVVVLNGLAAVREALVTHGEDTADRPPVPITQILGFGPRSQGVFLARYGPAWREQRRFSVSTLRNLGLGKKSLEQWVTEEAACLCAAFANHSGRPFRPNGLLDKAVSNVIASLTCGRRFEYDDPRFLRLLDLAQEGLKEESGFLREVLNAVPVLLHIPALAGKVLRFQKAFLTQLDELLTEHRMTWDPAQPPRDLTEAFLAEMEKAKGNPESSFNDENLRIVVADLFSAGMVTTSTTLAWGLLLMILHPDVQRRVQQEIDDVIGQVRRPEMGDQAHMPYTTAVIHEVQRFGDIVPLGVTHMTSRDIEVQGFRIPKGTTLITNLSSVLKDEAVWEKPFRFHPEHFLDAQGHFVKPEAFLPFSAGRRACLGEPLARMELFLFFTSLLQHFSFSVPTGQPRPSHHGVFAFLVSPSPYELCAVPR
Data set [4] has as its system Rattus norvegicus. The data set is described as follows: Antidiabetic activity in Sprague-Dawley rat assessed as glucose concentration-dependent insulin secretion by measuring reduction in blood glucose AUC at 0.3 mg/kg, po pretreated for 30 mins followed by glucose-challenge measured up to 120 mins by ipGTT relative to control. The format is functional. The arrangement: scale not given: the % may be the effect or the level left.

For data set [5], the system named is Rattus norvegicus. Put plainly: Antidiabetic activity in Sprague-Dawley rat assessed as glucose concentration-dependent insulin secretion by measuring reduction in blood glucose AUC at 1 mg/kg, po pretreated for 30 mins followed by glucose-challenge measured up to 120 mins by ipGTT relative to control. The format is functional. The arrangement: scale not given: the % may be the effect or the level left.

Chain of Cytochrome P450 2C9 (P11712 whole entry): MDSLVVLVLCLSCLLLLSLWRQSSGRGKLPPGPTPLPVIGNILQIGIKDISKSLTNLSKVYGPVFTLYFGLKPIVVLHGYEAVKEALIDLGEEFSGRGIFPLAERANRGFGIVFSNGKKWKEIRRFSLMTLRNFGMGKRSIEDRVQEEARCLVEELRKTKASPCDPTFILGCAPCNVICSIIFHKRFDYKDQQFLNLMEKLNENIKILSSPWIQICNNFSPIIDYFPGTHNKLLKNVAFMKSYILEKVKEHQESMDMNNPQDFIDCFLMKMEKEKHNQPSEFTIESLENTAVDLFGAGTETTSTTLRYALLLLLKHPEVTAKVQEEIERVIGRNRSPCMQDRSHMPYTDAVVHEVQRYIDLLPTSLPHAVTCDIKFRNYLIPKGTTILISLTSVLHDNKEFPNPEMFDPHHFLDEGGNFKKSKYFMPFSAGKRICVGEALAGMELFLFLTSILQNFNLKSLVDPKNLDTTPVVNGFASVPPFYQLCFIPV

As to `CN(C)C(=O)c1ccc(OCCCCC[C@H]2CC[C@]3(CCCO3)CC2)cc1`, the EC50 in data set [1] was determined as 95 nM. For the same molecule, the Activity in data set [2] amounted to 84%.
Turning to `CN(C)C(=O)c1ccc(OCCCCC[C@H]2CC[C@@]3(CCCCO3)CC2)cc1`, the EC50 in data set [1] came to 21 nM. Besides, in [2], the Activity amounted to 96%.
The corresponding values for `CN(C)C(=O)c1ccc(OCCCCCC2CCC3(CC2)OCCCO3)cc1` are 29 nM and 96%.
For `CN(C)C(=O)c1ccc(OCCCCC[C@H]2CC[C@]3(CCC(C)(C)O3)CC2)cc1`, in that order: 511 nM and 64%.
For `CN(C)C(=O)c1ccc(OCCCCC[C@H]2CC[C@@]3(CC2)CC(C)(C)CO3)cc1`, in that order: 4 nM and 99%.
Turning to `CC(C)(C)OC(=O)N1CCC(CCCCCOc2ccc(S(C)(=O)=O)cc2)CC1`, the 50% effective concentration (EC50) in data set [1] was found to be 14 nM. Also, in data set [2], the Activity is 93%. In addition, in data set [3], the concentration in solution (solubility) was 15.9 µM (≈ 6.77 µg/mL).
Take `CN(C)C(=O)c1ccc(OCCCCC[C@H]2CC[C@]3(CC2)COC(C)(C)C3)cc1`: in data set [1], the 50% effective concentration (EC50) came out at 4 nM. Moreover, the Activity was 104% in [2], 14% with Rattus norvegicus [4] and 33% in the data set with Rattus norvegicus [5]. The IC50 on Cytochrome P450 2C8, at Cytochrome P450 2C9, against Cytochrome P450 2C19, against Cytochrome P450 1A2, on Cytochrome P450 3A4 and against Cytochrome P450 2D6 was over 10 µM each time. The molecule also had a solubility in data set [3] of 442 µM (≈ 177 µg/mL).
`CC(C)OC(=O)N1CCC(CCCCCOc2ccc(C(=O)N(C)C)cc2)CC1`: the EC50 in data set [1] was determined as 10 nM. The Activity in [2] came to 102%. Moreover, the IC50 on Cytochrome P450 2C8, at Cytochrome P450 2C9 and against Cytochrome P450 2C19 was under 10 µM throughout. Besides, the solubility in data set [3] was 222 µM (≈ 89.7 µg/mL).
As for `CC(C)(C)OC(=O)N1CCC(CCCCCCOc2ccc(S(C)(=O)=O)cc2)CC1`, the EC50 in data set [1] was determined as 78 nM. In data set [2], the Activity stood at 72%.
As for `CN(C)C(=O)c1ccc(OCCCCCC2CCN(C(=O)OC(C)(C)C)CC2)cc1`, in data set [1], the EC50 was determined as 5 nM. The Activity in data set [2] came out at 97%. The molecule also returned a solubility in data set [3] of 74.2 µM (≈ 31.1 µg/mL).
As to `CN(C)C(=O)c1ccc(OCCCCCC2CCC3(CCCCC3)CC2)cc1`, in data set [1], the EC50 was 27 nM. Further, in [2], the Activity is 91%.
For `CN(C)C(=O)c1ccc(OCCCCC[C@H]2CC[C@@]3(CC2)CC(C)(C)CCO3)cc1`, in that order: 7 nM and 110%.
The corresponding values for `CN(C)C(=O)c1ccc(OCCCCCC2CCC3(CC2)OCCO3)cc1` are 88 nM and 92%.
The corresponding values for `CC(C)(C)OC(=O)N1CCC(CCCOc2ccc(S(C)(=O)=O)cc2)CC1` are 353 nM and 106%.
Turning to `CN(C)C(=O)c1ccc(OCCCCC[C@H]2CC[C@@]3(CCCO3)CC2)cc1`, the EC50 in data set [1] was found to be 132 nM. Besides, in data set [2], the Activity is 89%.
As for `CC(C)(C)OC(=O)N1CCC(CCCCOc2ccc(S(C)(=O)=O)cc2)CC1`, in data set [1], the EC50 worked out at 209 nM. In addition, in data set [2], the Activity was determined as 100%.
The corresponding values for `CN(C)C(=O)c1ccc(OCCCCC[C@H]2CC[C@]3(CCCCO3)CC2)cc1` are 36 nM and 96%.
